For series [1], the species on record is Danio rerio. In words: Toxicity in wild type zebrafish embryo assessed as mortality up to 30 uM treated 5 hrs after post fertilization measured 5 days after post fertilization by microscopy. Type of series: organism-based. To be noted: in vivo, 120 h.
The target in series [2] is Glycogen synthase kinase-3 alpha (Homo sapiens, UniProt P49840). Briefly: Inhibition of human recombinant GSK3alpha.
Series [3] concerns the target Glycogen synthase kinase-3 beta (Homo sapiens, UniProt P49841). In words: Inhibition of human recombinant GSK3beta.
Series [4] addresses Protein kinase C alpha type (Homo sapiens, UniProt P17252). Briefly: Inhibition of human recombinant PKCalpha by FRET assay.
In series [5] the target is T1, Aurora kinase A (Homo sapiens, UniProt O14965).
T1 sequence (O14965 whole entry): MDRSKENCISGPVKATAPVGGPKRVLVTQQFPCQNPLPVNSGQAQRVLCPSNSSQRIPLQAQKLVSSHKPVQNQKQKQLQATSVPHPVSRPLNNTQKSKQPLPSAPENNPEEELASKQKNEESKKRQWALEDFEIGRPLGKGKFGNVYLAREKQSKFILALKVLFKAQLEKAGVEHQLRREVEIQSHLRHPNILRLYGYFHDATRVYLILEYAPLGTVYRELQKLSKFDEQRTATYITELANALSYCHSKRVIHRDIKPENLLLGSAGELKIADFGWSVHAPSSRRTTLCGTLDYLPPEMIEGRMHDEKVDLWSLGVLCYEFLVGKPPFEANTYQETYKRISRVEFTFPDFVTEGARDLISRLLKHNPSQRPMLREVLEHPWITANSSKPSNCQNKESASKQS
Briefly: Inhibition of human recombinant AurKA by FRET assay.

Series [6] deals with Casein kinase I isoform epsilon (Homo sapiens, UniProt P49674). In words: Inhibition of human recombinant CK1epsilon by FRET assay.
In series [7] the target is Cyclin-dependent kinase 5/CDK5 activator 1 (Homo sapiens, UniProt Q00535). Briefly: Inhibition of human recombinant CDK5/p35 by FRET assay. Type of series: protein-complex assay.
Series [8] is described as follows: Aqueous solubility of the compound at 200 uM at pH 7.4 in phosphate buffer saline after 24 hrs by HPLC-UV/VIS spectroscopic analysis. The settings on record: pH 7.4, 24 h. Type of series: physicochemical.
Series [9] can be described thus: Octanol-phosphate buffer partition coefficient, log D of the compound at 100 uM at pH 7.4 after 60 mins by HPLC-UV/VIS spectroscopic analysis. It is filed as physicochemical.
Series [10] deals with Liver microsomes. In words: Metabolic stability in human liver microsomes after 60 mins by HPLC MS/ Mass spectroscopic analysis. The settings on record: 1 h. It is filed as ADME, Microsome.
Series [11] relates to Caco-2. Briefly: Permeability from apical to basolateral side of human Caco2 cells at pH 6.5/7.4 after 60 mins by HPLC MS/ Mass spectroscopic analysis. To be noted: caco-2, pH 6.5, 1 h. Type of series: ADME, cell-based.

Molecules are shown by their SMILES. Where only a bound is given, the exact number is not on record here.

Sequence of Casein kinase I isoform epsilon (P49674 whole entry, canonical isoform): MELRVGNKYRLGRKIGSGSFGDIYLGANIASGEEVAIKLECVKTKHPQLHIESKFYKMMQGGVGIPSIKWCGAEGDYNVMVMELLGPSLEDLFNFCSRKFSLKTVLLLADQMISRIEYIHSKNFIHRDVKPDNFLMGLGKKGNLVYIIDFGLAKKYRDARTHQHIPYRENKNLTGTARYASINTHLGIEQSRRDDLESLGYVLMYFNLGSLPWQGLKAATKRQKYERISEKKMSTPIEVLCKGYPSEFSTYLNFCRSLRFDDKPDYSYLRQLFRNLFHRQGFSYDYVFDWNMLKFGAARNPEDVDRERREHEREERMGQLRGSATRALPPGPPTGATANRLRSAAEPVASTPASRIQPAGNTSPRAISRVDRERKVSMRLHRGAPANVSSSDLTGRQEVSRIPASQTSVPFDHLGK
Sequence of Glycogen synthase kinase-3 beta (P49841 whole entry): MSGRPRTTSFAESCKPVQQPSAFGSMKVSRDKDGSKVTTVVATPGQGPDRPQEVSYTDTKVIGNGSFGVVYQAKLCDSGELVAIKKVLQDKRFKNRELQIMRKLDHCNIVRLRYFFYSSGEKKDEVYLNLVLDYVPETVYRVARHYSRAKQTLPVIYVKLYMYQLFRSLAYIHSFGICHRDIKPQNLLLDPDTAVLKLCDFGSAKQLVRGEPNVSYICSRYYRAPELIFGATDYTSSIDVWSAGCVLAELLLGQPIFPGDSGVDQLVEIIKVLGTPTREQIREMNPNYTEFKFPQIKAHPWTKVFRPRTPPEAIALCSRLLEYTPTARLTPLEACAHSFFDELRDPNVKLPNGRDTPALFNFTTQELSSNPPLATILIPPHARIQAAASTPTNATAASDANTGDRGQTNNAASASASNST
Sequence of Glycogen synthase kinase-3 alpha (P49840 whole entry): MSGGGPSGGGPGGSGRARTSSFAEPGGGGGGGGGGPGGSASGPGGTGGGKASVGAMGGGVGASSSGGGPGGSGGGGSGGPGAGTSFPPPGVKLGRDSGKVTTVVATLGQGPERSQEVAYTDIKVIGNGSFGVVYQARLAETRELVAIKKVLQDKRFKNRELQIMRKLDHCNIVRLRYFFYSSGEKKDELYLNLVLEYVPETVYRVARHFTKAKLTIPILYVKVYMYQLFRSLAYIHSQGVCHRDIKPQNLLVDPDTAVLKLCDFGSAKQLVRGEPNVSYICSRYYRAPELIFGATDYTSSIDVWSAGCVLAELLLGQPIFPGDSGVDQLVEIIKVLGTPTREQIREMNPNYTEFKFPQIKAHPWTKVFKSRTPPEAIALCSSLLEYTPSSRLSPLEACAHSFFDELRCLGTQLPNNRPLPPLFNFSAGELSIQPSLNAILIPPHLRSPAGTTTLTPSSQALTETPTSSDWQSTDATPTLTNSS
Sequence of Cyclin-dependent kinase 5/CDK5 activator 1 (Q00535 whole entry): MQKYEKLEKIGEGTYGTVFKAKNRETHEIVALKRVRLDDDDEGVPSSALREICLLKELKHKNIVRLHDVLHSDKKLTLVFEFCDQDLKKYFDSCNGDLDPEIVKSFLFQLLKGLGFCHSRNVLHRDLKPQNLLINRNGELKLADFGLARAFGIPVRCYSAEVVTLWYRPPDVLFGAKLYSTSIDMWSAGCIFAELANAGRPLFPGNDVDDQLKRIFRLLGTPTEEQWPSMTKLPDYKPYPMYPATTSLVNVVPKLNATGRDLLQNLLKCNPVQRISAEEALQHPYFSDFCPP
Sequence of Cyclin-dependent kinase 5/CDK5 activator 1 (Q15078 whole entry, further chain): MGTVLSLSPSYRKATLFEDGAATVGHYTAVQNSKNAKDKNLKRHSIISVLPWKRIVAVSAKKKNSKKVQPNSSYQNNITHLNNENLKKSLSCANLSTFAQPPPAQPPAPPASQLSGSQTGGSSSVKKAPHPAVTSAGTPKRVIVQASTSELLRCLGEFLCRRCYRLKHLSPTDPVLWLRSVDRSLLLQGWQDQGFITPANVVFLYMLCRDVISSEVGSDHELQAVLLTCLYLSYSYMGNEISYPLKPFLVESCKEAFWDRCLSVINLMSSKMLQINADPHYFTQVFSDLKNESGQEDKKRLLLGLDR

With `COC(=O)c1ccc(CSc2nnc(-c3ccc4c(c3)OCO4)o2)cc1`, the Activity entry in series [1] is given as “Non-toxic”.
Regarding `N#Cc1ccc(CSc2nnc(-c3ccc4c(c3)OCCO4)o2)cc1`, the Activity result in [1] is reported as “Non-toxic”. Besides, the concentration for half-maximal inhibition (IC50) was 0.045 µM in series [2] and 0.166 µM in series [3].
Take `CC(C)CNC(=O)c1ccc(CSc2nnc(-c3ccc4c(c3)OCO4)o2)cc1`: the Activity entry in series [1] is listed as “Non-toxic”.
Regarding `O=C(O)c1ccc(CSc2nnc(-c3ccc4c(c3)OCCO4)o2)cc1`, the Activity entry in series [1] is recorded as “Non-toxic”.
On to `COC[C@H]1COc2ccc(-c3nnc(SCc4ccc(-c5ccccc5C#N)cc4)o3)cc2O1`, for which, in series [1], the Activity entry is reported as “Non-toxic”. Moreover, the 50% inhibitory concentration (IC50) in series [4] is more than 100 µM; in series [5], more than 100 µM; in series [6] it was more than 100 µM; in series [7], more than 100 µM; in series [2] it was 0.015 µM; in series [3] it was 0.129 µM.
Take `COC(CNC(=O)c1ccc(CSc2nnc(-c3ccc4c(c3)OCCO4)o2)cc1)OC`: in series [1], the Activity result is reported as “Non-toxic”.
On to `c1ccc(CSc2nnc(-c3ccncc3)o2)cc1`, for which the Activity result in series [1] is recorded as “Non-toxic”. For the same molecule, the IC50 in [2] is 2.24 µM; in [3] it was 1.32 µM.
Regarding `N#Cc1cccc(CSc2nnc(-c3ccc4c(c3)OCO4)o2)c1`, the Activity result in series [1] is “Non-toxic”. For the same molecule, the IC50 was 0.015 µM in [2] and 0.065 µM in series [3].
`COC[C@@H]1COc2ccc(-c3nnc(SCc4ccc(-c5ccccc5C#N)cc4)o3)cc2O1`: the Activity entry in [1] is given as “Non-toxic”. The IC50 is more than 100 µM in series [4]; more than 100 µM in series [5]; more than 100 µM in series [6]; more than 100 µM in [7]; 0.195 µM in series [2]; 0.758 µM in [3].
As for `O=C(O)c1ccc(CSc2nnc(-c3ccc4c(c3)OCO4)o2)cc1`, in series [1], the Activity result was “Non-toxic”.
Turning to `N#Cc1ccccc1-c1ccc(CSc2nnc(-c3ccncc3)o2)cc1`, in series [1], the Activity result is given as “Non-toxic”. Further, the IC50 is more than 100 µM in series [4]; more than 100 µM in series [5]; more than 100 µM in [6]; more than 100 µM in [7]; 0.019 µM in series [2]; 0.041 µM in series [3].
In the case of `N#Cc1cccc(CSc2nnc(-c3ccc4c(c3)OCCO4)o2)c1`, in series [1], the Activity entry is recorded as “Non-toxic”. Further, the concentration for half-maximal inhibition (IC50) in series [2] stood at 0.095 µM; in series [3], 0.086 µM.
Turning to `COC(CNC(=O)c1ccc(CSc2nnc(-c3ccc4c(c3)OCO4)o2)cc1)OC`, the Activity entry in series [1] is “Non-toxic”.
For `N#Cc1ccccc1-c1ccc(CSc2nnc(-c3ccc4c(c3)OCO4)o2)cc1`, the Activity result in series [1] is reported as “Non-toxic”. Besides, the half-maximal inhibitory concentration (IC50) is more than 100 µM in series [4]; more than 100 µM in series [5]; more than 100 µM in [6]; more than 100 µM in [7]; less than 0.005 µM in [2]; 0.039 µM in [3].
Take `N#Cc1cccc(CSc2nnc(-c3ccncc3)o2)c1`: the Activity entry in series [1] is recorded as “Non-toxic”. Also, the half-inhibitory concentration (IC50) in series [2] was 3.21 µM; in [3], 3.16 µM.
Consider `N#Cc1ccc(CSc2nnc(-c3ccc4c(c3)OCO4)o2)cc1`, for which the Activity result in series [1] is “Non-toxic”. Further, the IC50 in [2] turned out to be 0.015 µM; in [3], 0.13 µM.
`N#Cc1ccc(-c2ccc(CSc3nnc(-c4ccc5c(c4)OCO5)o3)cc2)cc1`: the solubility entry in series [8] is recorded as “Insoluble”. Besides, the logD at 1 h, 100 µM in [9] was 3.58. In addition, the Stability entry in series [10] is recorded as “Stable”. Besides, the permeability result in [11] is given as “impermeable”. Besides, the Activity result in series [1] was “Non-toxic”. Also, the IC50 was more than 100 µM in series [4], 30 µM in series [5], 60 µM in series [6] and more than 100 µM in series [7].
As to `N#Cc1ccccc1-c1ccc(CSc2nnc(-c3ccc4c(c3)OCCO4)o2)cc1`, the Activity entry in [1] is reported as “Non-toxic”. Moreover, the IC50 is more than 100 µM in [4]; more than 100 µM in series [5]; more than 100 µM in series [6]; more than 100 µM in series [7]; less than 0.005 µM in [2]; less than 0.005 µM in series [3].
Regarding `CC(C)CNC(=O)c1ccc(CSc2nnc(-c3ccc4c(c3)OCCO4)o2)cc1`, the Activity entry in series [1] is on record as “Non-toxic”.
For the molecule `COCC1COc2ccc(-c3nnc(SCc4ccc(-c5ccccc5C#N)cc4)o3)cc2O1` (racemic), the Activity result in series [1] is recorded as “Non-toxic”. In addition, the half-inhibitory concentration (IC50) in series [4] was more than 100 µM; in [5], 30 µM; in series [6], more than 100 µM; in [7], more than 100 µM; in series [2], 0.054 µM; in series [3], 0.233 µM.
Turning to `N#Cc1cc(F)ccc1-c1ccc(CSc2nnc(-c3ccc4c(c3)OCCO4)o2)cc1`, in series [1], the Activity result is listed as “Non-toxic”. Besides, the half-inhibitory concentration (IC50) in series [4] is more than 100 µM; in series [5] it was 5 µM; in [6], more than 100 µM; in [7] it was more than 100 µM.
As to `N#Cc1cc(F)ccc1-c1ccc(CSc2nnc(-c3ccc4c(c3)OCO4)o2)cc1`, the Activity entry in series [1] is recorded as “Non-toxic”. Also, the IC50 was more than 100 µM in series [4]; 30 µM in series [5]; 20 µM in [6]; more than 100 µM in series [7]; 0.003 µM in [2]; 0.022 µM in [3].
Consider `c1cc(-c2nnn[nH]2)ccc1CSc1nnc(-c2ccc3c(c2)OCO3)o1`, for which the Activity entry in series [1] is “Non-toxic”. The IC50 in [2] is 0.107 µM; in series [3], 0.172 µM.
`COC(=O)c1ccc(CSc2nnc(-c3ccc4c(c3)OCCO4)o2)cc1`: the Activity entry in [1] is reported as “Non-toxic”. Also, the half-inhibitory concentration (IC50) in series [4], in [5], in series [6] and in series [7] was more than 100 µM in each case.
`N#Cc1ccc(CSc2nnc(-c3ccncc3)o2)cc1`: the Activity entry in series [1] is given as “Non-toxic”. Besides, the 50% inhibitory concentration (IC50) in [2] is 7.38 µM; in series [3], 10 µM.
`O=C(NCc1ccccc1)c1ccc(CSc2nnc(-c3ccc4c(c3)OCCO4)o2)cc1`: the Activity result in [1] is on record as “Non-toxic”.
Take `c1ccc(-c2ccc(CSc3nnc(-c4ccc5c(c4)OCO5)o3)cc2)cc1`: the Activity result in series [1] was “Non-toxic”. Moreover, the IC50 in [4] was more than 100 µM; in series [5], more than 100 µM; in series [6], more than 100 µM; in series [7], more than 100 µM; in [2], 0.009 µM; in [3] it was 0.176 µM.
`Ic1cccc(CSc2nnc(-c3ccncc3)o2)c1`: the Activity result in series [1] is recorded as “Non-toxic”. The IC50 in [2] stood at 0.39 µM.

These data come from ChEMBL document CHEMBL2062370, “Identification of glycogen synthase kinase-3 inhibitors with a selective sting for glycogen synthase kinase-3α” (J Med Chem, 2012).
